Test results as given in patent US20240009209A1, “PROTEIN-BOUND CANNABINOID FORMULATIONS AND USES THEREOF” (YISSUM RESEARCH DEVELOPMENT COMPANY OF THE HEBREW …, priority 2020, published 2024).

Test: Plasma CBD after IV administration
Type: in vivo, BALB/C mice
Settings: mice, IV 12 mg/kg
Description: A total of 18 female BALB/C mice aged 12 weeks were injected IV with a single dose of 12 mg/kg CBD formulation in cremophor:ethanol.
At the time-points detailed below, 3 mice were euthanized with CO2 and terminal blood was immediately collected from the retro-orbital sinus in labeled 0.5 ml K3 EDTA blood collection tubes (Mini Collect, Greiner-bio-one, Austria). The blood was centrifuged at 2000×g for 10 minutes before plasma was extracted, collected in labeled tubes and frozen at −20° C. immediately after collection. The samples were then stored at −80° C. pending analysis.
Time-points for the blood collection: 2 min, 1, 4, 8, 24 and 48 h.
CBD was extracted from plasma samples that were spiked with cannabigerol (CBG, 1 mg/ml in methanol, Sigma, Cat. C-141-1 Add lot) used as internal standard (IS) followed by dilution of the plasma five-fold in acetonitrile. After vigorous vortex it was centrifuged, and the upper phase was analyzed. Final IS concentration in the samples was 100 ng/ml.
Plasma extracts were analyzed by LC/MS method (Sciex (Framingham, MA, USA) Triple Quad™ 5500 mass spectrometer coupled with a Shimadzu (Kyoto, Japan) UHPLC System). The concentrations were calculated based on a calibration curve of CBD in plasma at a range of 1-1,000 ng/ml having 100 ng/ml of Internal Standard (IS).

## C=C(C)[C@@H]1CCC(C)=C[C@H]1c1c(O)cc(CCCCC)cc1O [free CBD, 2-[(1R,6R)-6-Isopropenyl-3-methylcyclohex-2-en1-yl]-5-pentylbenzene-1,3-diol]
24 h
  Plasma CBD Mean ± SD: BLOD
24 h, listed as CBD
  Plasma CBD Mean ± SD: below the limit of detection
48 h
  Plasma CBD Mean ± SD: BLOD
48 h, listed as CBD
  Plasma CBD Mean ± SD: below the limit of detection
